Laboratory results: BindingDB's records for doi:10.1128/AAC.01572-08 (Mcmaster University, 2009)

These compounds were tested against Bifunctional protein GlmU (Escherichia coli (strain K12), UniProt P0ACC7) (assay: Competitive inhibition of Acetyltransferase activity of Escherichia coli BL21(DE3) GlmU in presence of AcCoA).
Bifunctional protein GlmU, sequence (P0ACC7 whole entry): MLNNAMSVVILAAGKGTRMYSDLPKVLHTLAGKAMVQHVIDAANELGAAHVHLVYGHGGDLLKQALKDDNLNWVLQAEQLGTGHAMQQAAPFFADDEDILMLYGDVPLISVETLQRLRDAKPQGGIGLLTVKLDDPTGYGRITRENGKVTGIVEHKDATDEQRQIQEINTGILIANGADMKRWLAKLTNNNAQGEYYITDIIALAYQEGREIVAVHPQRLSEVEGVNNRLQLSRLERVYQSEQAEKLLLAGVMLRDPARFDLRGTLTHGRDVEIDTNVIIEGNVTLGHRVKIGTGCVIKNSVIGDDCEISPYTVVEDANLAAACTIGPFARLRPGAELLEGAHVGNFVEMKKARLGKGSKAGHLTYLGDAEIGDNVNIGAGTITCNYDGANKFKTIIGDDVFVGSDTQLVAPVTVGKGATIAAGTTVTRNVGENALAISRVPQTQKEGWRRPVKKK

Structure (SMILES)	Ki [nM]
Nc1ccc(Nc2ccc(N)cc2S(=O)(=O)O)cc1 [5-amino-2-(4-aminophenylamino)benzenesulfonic acid]	17
O=S(=O)(Nc1ccc(S(=O)(=O)c2ccc(-c3ccc(S(=O)(=O)c4ccc(NS(=O)(=O)c5ccc(Cl)cc5)c(Cl)c4)cc3)cc2)cc1Cl)c1ccc(Cl)cc1 [Mac0008028]	404
O=C(CSc1nnc(SCC(=O)NCCSCc2ccco2)s1)NCCSCc1ccco1 [Mac0029665]	23
